Columns and labels:
[1] = molecular target: Serine/threonine-protein kinase PAK 2 (Homo sapiens) (UniProt Q13177); assay: Inhibition of wild-type human partial length PAK2 (P151 to R525 residues) expressed in bacterial expression system assessed as residual activity at 1 uM by Kinomescan method relative to control
[2] = molecular target: Cyclin-dependent kinase 2 homolog (Plasmodium falciparum (isolate 3D7)) (UniProt P61075); assay: Inhibition of wild-type Plasmodium falciparum isolate 3D7 full length PK5 (M1 to N288 residues) expressed in mammalian expression system assessed as residual activity at 1 uM by Kinomescan method relative to control
[3] = molecular target: Serine/threonine-protein kinase ULK3 (Homo sapiens) (UniProt Q6PHR2); assay: Inhibition of wild-type human partial length ULK3 (M1 to Q290 residues) expressed in mammalian expression system assessed as residual activity at 1 uM by Kinomescan method relative to control
[4] = molecular target: Dual specificity tyrosine-phosphorylation-regulated kinase 1B (Homo sapiens) (UniProt Q9Y463); assay: Inhibition of wild-type human full length DYRK1B (M1 to S629 residues) expressed in bacterial expression system assessed as residual activity at 1 uM by Kinomescan method relative to control
[5] = molecular target: Cyclin-dependent kinase 4/cyclin D1 (Homo sapiens) (UniProt P11802+P24385); assay: Inhibition of wild-type human full length CDK4/cyclinD1 (M1 to E303 residues) expressed in mammalian expression system assessed as residual activity at 1 uM by Kinomescan method relative to control
[6] = molecular target: Bone morphogenetic protein receptor type-1A (Homo sapiens) (UniProt P36894); assay: Inhibition of wild-type human partial length BMPR1A (Q214 to I532 residues) expressed in bacterial expression system assessed as residual activity at 1 uM by Kinomescan method relative to control
[7] = molecular target: Activin receptor type-1-like (Homo sapiens) (UniProt P37023); assay: Inhibition of wild-type human ACVRL1 (L164 to Q503 residues) expressed in bacterial expression system assessed as residual activity at 1 uM by Kinomescan method relative to control
[8] = molecular target: Cyclin-dependent kinase 14 (Homo sapiens) (UniProt O94921); assay: Inhibition of wild-type human full length PFTK1 (M1 to H451 residues) expressed in bacterial expression system assessed as residual activity at 1 uM by Kinomescan method relative to control
[9] = molecular target: Epithelial discoidin domain-containing receptor 1 (Homo sapiens) (UniProt Q08345); assay: Inhibition of wild-type human partial length DDR1 (R565 to V876 residues) expressed in bacterial expression system assessed as residual activity at 1 uM by Kinomescan method relative to control
[10] = molecular target: Calcium/calmodulin-dependent protein kinase type 1G (Homo sapiens) (UniProt Q96NX5); assay: Inhibition of wild-type human partial length CAMK1G (M1 to A342 residues) expressed in bacterial expression system assessed as residual activity at 1 uM by Kinomescan method relative to control
[11] = molecular target: Serine/threonine-protein kinase pim-1 (Homo sapiens) (UniProt P11309); assay: Inhibition of wild-type human partial length PIM1 (A15 to K313 residues) expressed in bacterial expression system assessed as residual activity at 1 uM by Kinomescan method relative to control
[12] = molecular target: Ephrin type-A receptor 3 (Homo sapiens) (UniProt P29320); assay: Inhibition of wild-type human partial length EPHA3 (D604 to K889 residues) expressed in bacterial expression system assessed as residual activity at 1 uM by Kinomescan method relative to control
[13] = molecular target: Phosphatidylinositol 5-phosphate 4-kinase type-2 gamma (Homo sapiens) (UniProt Q8TBX8); assay: Inhibition of wild-type human partial length PIP5K2C (M1 to A421 residues) expressed in mammalian expression system assessed as residual activity at 1 uM by Kinomescan method relative to control
SU-DHL-2 = assay: Growth inhibition of human SU-DHL-2 cells; type: functional; conditions: Homo sapiens, SU-DHL-2
[14] = molecular target: Serine/threonine-protein kinase TBK1 (Homo sapiens) (UniProt Q9UHD2); assay: Inhibition of wild-type human full length TBK1 (M1 to L729 residues) expressed in mammalian expression system assessed as residual activity at 1 uM by Kinomescan method relative to control
[15] = molecular target: Tyrosine-protein kinase Yes (Homo sapiens) (UniProt P07947); assay: Inhibition of wild-type human partial length YES (T257 to L543 residues) expressed in bacterial expression system assessed as residual activity at 1 uM by Kinomescan method relative to control
[16] = molecular target: Serine/threonine-protein kinase Chk1 (Homo sapiens) (UniProt O14757); assay: Inhibition of wild-type human partial length CHEK1 (M1 to G289 residues) expressed in bacterial expression system assessed as residual activity at 1 uM by Kinomescan method relative to control
[17] = system: Epidermal growth factor receptor (Homo sapiens), P00533 [G719S]; assay: Inhibition of human partial length EGFR G719S mutant (R669 to V1011 residues) expressed in bacterial expression system assessed as residual activity at 1 uM by Kinomescan method relative to control
[18] = molecular target: Tyrosine-protein kinase BTK (Homo sapiens, UniProt Q06187); assay: Inhibition of BTK auto-phosphorylation at Y223 in human Pfeiffer cells measured after 4 hrs by chemiluminescent assay
[19] = system: Tyrosine-protein kinase ABL1 (Homo sapiens), P00519 [M351T]; assay: Inhibition of human phosphorylated ABL1 M351T mutant (S229 to K512 residues) expressed in mammalian expression system assessed as residual activity at 1 uM by Kinomescan method relative to control
[20] = molecular target: Mitogen-activated protein kinase kinase kinase 5 (Homo sapiens) (UniProt Q99683); assay: Inhibition of wild-type human partial length ASK1 (E648 to S964 residues) expressed in bacterial expression system assessed as residual activity at 1 uM by Kinomescan method relative to control
[21] = molecular target: Protein-tyrosine kinase 2-beta (Homo sapiens) (UniProt Q14289); assay: Inhibition of wild-type human full length PYK2 (M1 to E967 residues) expressed in bacterial expression system assessed as residual activity at 1 uM by Kinomescan method relative to control
[22] = molecular target: Insulin receptor-related protein (Homo sapiens) (UniProt P14616); assay: Inhibition of wild-type human partial length INSRR (R950 to E1278 residues) expressed in bacterial expression system assessed as residual activity at 1 uM by Kinomescan method relative to control
[23] = molecular target: Calcium/calmodulin-dependent protein kinase type IV (Homo sapiens) (UniProt Q16566); assay: Inhibition of wild-type human partial length CAMK4 (A22 to A322 residues) expressed in bacterial expression system assessed as residual activity at 1 uM by Kinomescan method relative to control
[24] = molecular target: Activated CDC42 kinase 1 (Homo sapiens) (UniProt Q07912); assay: Inhibition of wild-type human partial length TNK2 (S159 to D474 residues) expressed in bacterial expression system assessed as residual activity at 1 uM by Kinomescan method relative to control
[25] = molecular target: Tyrosine-protein kinase HCK (Homo sapiens) (UniProt P08631); assay: Inhibition of wild-type human full length HCK (M22 to P526 residues) expressed in bacterial expression system assessed as residual activity at 1 uM by Kinomescan method relative to control

Compound: C=CC(=O)Nc1cc(Nc2cc(-c3cccc(NC(=O)c4ccc(C(C)(C)C)cc4)c3C)cn(C)c2=O)ccc1C(=O)N1CCOCC1
- Activity [1]: 81%
- Activity [2]: 88%
- Activity [3]: 99%
- Activity [4]: 74%
- Activity [5]: 100%
- Activity [6]: 98%
- Activity [7]: 89%
- Activity [8]: 93%
- Activity [9]: 100%
- Activity [10]: 100%
- Activity [11]: 100%
- Activity [12]: 95%
- Activity [13]: 97%
- GI50 (SU-DHL-2): 3000 nM
- Activity [14]: 100%
- Activity [15]: 93%
- Activity [16]: 100%
- Activity [17]: 100%
- EC50 [18]: < 30 nM
- Activity [19]: 97%
- Activity [20]: 100%
- Activity [21]: 100%
- Activity [22]: 100%
- Activity [23]: 77%
- Activity [24]: 95%
- Activity [25]: 100%
